{"source": "patent US20220168392A1", "about": "(priority 2019, published 2022)", "key": {"[1]": {"tested_on": "C57BL/6 mice exposed to TBI", "assay": "30-day survival after TBI in C57BL/6 mice", "format": "in vivo, mouse", "text": "Total Body Irradiation (TBI). Mice were irradiated bilaterally in the Cobalt-60 gamma-irradiation facility at the AFRRI. These animals were placed in well-ventilated plexiglass chambers made specifically for irradiating mice. An alanine/Electron Spin Resonance (ESR) dosimetry system (American Society for Testing and Material Standard E 1607) was used to measure the dose rates in the cores of acrylic phantoms (3 inches long and 1 inch in diameter) located in all empty slots of the exposure rack in the plexiglass chamber. ESR signals were measured with a calibration curve based on standard calibration dosimeters provided by the National Institute of Standard and Technology (NIST, Gaithersburg, Md.). The calibration curve was verified by inter-comparison with the National Physical Laboratory (NPL) in the United Kingdom. The corrections applied to the measured dose rates in phantoms were for decay of the Co-60 source and for a small difference in mass-energy absorption coefficients for water and soft tissue at the Co-60 energy level. Kaplan-Meier survival curves were plotted using GraphPad software; and trend in survival is compared between vehicle and drug-treated group.\nThe survival efficacy of RWJ-800088 was tested in C57BL/6 (another strain of mice with different radiation sensitivity compared to CD2F1) in males and females. […] All animals in saline treated groups (males and females) died whereas there was no mortality in RWJ-800088 treated groups 30 days post-TBI. […] All animals in saline treated groups died whereas there was 92% survival observed in the RWJ-800088 (24 h pre-TBI) treated group 30 days post-TBI.\nTo confirm the survival benefit provided by RWJ-800088 administration following TBI in another mouse strain with difference in radiation sensitivity, C57BL/6 male mice were irradiated at 8.0 Gy (˜LD70/30) followed by administration of a single subcutaneous dose of RWJ-800088 (1 mg/kg) at 24 h after TBI. The percentage of mice surviving on day 30 post-TBI for the RWJ-800088 treated group was 83% and for the saline treated group it was only 13% (2)."}, "[2]": {"tested_on": "CD2F1 mice exposed to TBI (7 Gy)", "assay": "Sternal bone marrow histopathology (cellularity, megakaryocytes) after 7 Gy TBI", "format": "in vivo, mouse", "settings": "day 7 post-TBI 7 Gy; 24 h pre-TBI administration", "method": "Sternal histopathology: Following blood collection, animals were euthanized, and the sterna were collected on 0 (2 h post-TBI), 1, 3, 7, 15 and 30 days post-TBI. The sterna were fixed in a 20:1 volume of fixative (10^0/% buffered formalin) to tissue for at least 24 h and up to 7 days. Fixed sterna were decalcified for 3 h in 12-18% sodium EDTA (pH 7.4-7.5), and specimens were dehydrated using graded ethanol concentrations and embedded in paraffin. Longitudinal 5 μm sections were stained with regular hematoxylin and eosin (H&E) stain. A board-certified veterinary pathologist conducted blinded histopathological evaluation of these samples. The bone marrow was evaluated in situ within sternebrae and graded for total cellularity and megakaryocyte numbers averaged per 10 high power fields at 40× magnification using a BX41 Olympus microscope (Olympus Corporation, Minneapolis, Minn.). […]\nBone marrow cellularity and architecture of CD2F1 mice treated 24 h pre-TBI with vehicle or RWJ-800088 were evaluated by the AFRRI pathologist (FIG. 8). Bone marrow cellularity was determined by evaluating the amount of adipose (fat) tissue versus hematopoietic cells (minus, mature red blood cells) on one (10×) high power field (HPF). […]\nSamples were collected on different days post-TBI up to day 30. […] Megakaryocytes were evaluated by averaging the number of cells per 10 (40×) high power fields (HPFs). […]"}, "[3]": {"tested_on": "dogs after whole body radiation at an LD50 exposure", "assay": "Dog pilot whole body irradiation study", "format": "in vivo", "settings": "single 10 mg/kg dose 24 hours after whole body radiation at LD50", "method": "A pilot radio-mitigation study was conducted in dogs with RWJ-800088."}, "[4]": {"tested_on": "rhesus monkeys after TBI gamma radiation (600 cGY)", "assay": "Rhesus monkey whole body irradiation pilot PK/PD study", "format": "in vivo", "method": "A pilot PK/PD study was performed to evaluate the efficacy of RWJ-800088 in rhesus monkeys (Study No. 2016-2693—CiToxLAB North America). Rhesus monkeys (n=10/group, 5 male/5 female) were treated with vehicle or RWJ-800088 (a single dose of 30 mg/kg RWJ-800088) administered 24 hours post TBI gamma radiation (600 cGY). […] The ratio of the maximum platelet count to baseline following escalating doses of RWJ-800088 to healthy rhesus monkeys is as follows: 0.97±0.06× at 0.5 mg/kg, 1.08±0.15× at 2 mg/kg, 1.98±0.16× at 10 mg/kg, 2.9±0.03× at 20 mg/kg, and 3.83±0.11× at 40 mg/kg)."}, "[5]": {"tested_on": "Rats, prostate irradiation", "assay": "Prostate irradiation in rats (Table 6)", "format": "in vivo, rat", "settings": "3 mg/kg, whole wrapped cell: Protection of vascular size and function"}, "[6]": {"settings": "C57BL/6 Both genders, 7.76 Gy, 0.3 mg/kg single dose, Post 6 hr"}, "[7]": {"settings": "C57BL/6 Both genders, 7.76 Gy, 0.3 mg/kg single dose, Post 24 hr"}, "[8]": {"settings": "C57BL/6 Both genders, 7.96 Gy, 0.3 mg/kg single dose, Post 6 hr"}, "[9]": {"settings": "C57BL/6 Both genders, 7.96 Gy, 0.3 mg/kg single dose, Post 24 hr"}, "[10]": {"settings": "C57BL/6 F, 8.75 Gy, 3 mg/kg single dose, Pre −24 hr"}, "[11]": {"settings": "C57BL/6 M, 8.75 Gy, 3 mg/kg single dose, Pre −24 hr"}}, "note": "Square brackets hold non-standard residues; d marks the D form. * marks the point of attachment. 2Nal = N[C@@H](Cc1ccc2ccccc2c1)C(=O)O; Propionyl = CCC(=O)*; Sar = CNCC(=O)O", "data": [{"substance": "methoxypolyethyleneglycol20000-propionyl-L-Isoleucyl-L-Glutamyl-Glycyl-L-Prolyl-L-Threonyl-L-Leucyl-L-Arginyl-L-Glutaminyl-L-2-Naphthylalanyl-L-Leucyl-L-Alanyl-L-Alanyl-L-Arginyl-Sarcosyl-Ne-(methoxypolyethyleneglycol20000-propionyl-L-Isoleucyl-L-Glutamyl-Glycyl-L-Prolyl-L-Threonyl-L-Leucyl-L-Arginyl-L-Glutaminyl-L-2-Naphthylalanyl-L-Leucyl-L-Alanyl-L-Alanyl-L-Arginyl-Sarcosyl-)-Lysinamide ({mPEG 20 kDa-Propionyl}-IEGPTLRQ[2Nal]LAAR[Sar]K-NH2; also: dimer: second identical mPEG-propionyl chain on Lys Nε of C-terminal lysinamide) [RWJ-800088]", "values": [{"measurement": "Survival Differential (Treatment-Vehicle)", "setting": "[1]; [6]", "value": 25, "unit": "%"}, {"measurement": "Survival treatment", "setting": "[1]; [6]", "value": 100, "unit": "%"}, {"measurement": "Survival Differential (Treatment-Vehicle)", "setting": "[1]; [7]", "value": 15, "unit": "%"}, {"measurement": "Survival treatment", "setting": "[1]; [7]", "value": 90, "unit": "%"}, {"measurement": "Survival Differential (Treatment-Vehicle)", "setting": "[1]; [8]", "value": 45, "unit": "%"}, {"measurement": "Survival treatment", "setting": "[1]; [8]", "value": 100, "unit": "%"}, {"measurement": "Survival Differential (Treatment-Vehicle)", "setting": "[1]; [9]", "value": 20, "unit": "%"}, {"measurement": "Survival treatment", "setting": "[1]; [9]", "value": 75, "unit": "%"}, {"measurement": "Survival Differential (Treatment-Vehicle)", "setting": "[1]; [10]", "value": 100, "unit": "%"}, {"measurement": "Survival treatment", "setting": "[1]; [10]", "value": 100, "unit": "%"}, {"measurement": "Survival Differential (Treatment-Vehicle)", "setting": "[1]; [11]", "value": 100, "unit": "%"}, {"measurement": "Survival treatment", "setting": "[1]; [11]", "value": 100, "unit": "%"}, {"measurement": "mortality 30 days post-TBI", "setting": "[1]; C57BL/6 male and female, 8.75 Gy (LD100/30), 3 mg/kg 24 h prior to irradiation", "value": "no mortality"}, {"measurement": "percentage of mice surviving on day 30 post-TBI", "setting": "[1]; C57BL/6 male, 8.0 Gy (~LD70/30), single SC dose 1 mg/kg at 24 h after TBI", "value": 83, "unit": "%"}, {"measurement": "megakaryocytes counts in sternal bone marrow", "setting": "[2]", "value": "significant recovery"}, {"measurement": "Blood transfusions", "setting": "[3]", "value": "1.25/ /animal"}, {"measurement": "Days of febrile neutropenia", "setting": "[3]", "value": 1.08}, {"measurement": "Diarrhea", "setting": "[3]", "value": "2/12"}, {"measurement": "Mean survival time", "setting": "[3]", "value": 36, "unit": "days"}, {"measurement": "Mild to moderate necrohemorrhagic bronchioalveolar or minimal subacute bronchioalveolar inflammation", "setting": "[3]", "value": "6/12"}, {"measurement": "Mild to severe hematopoietic bone marrow hypocellularity", "setting": "[3]", "value": "6/12"}, {"measurement": "Mortality", "setting": "[3]", "value": "7/12"}, {"measurement": "Neutropenia nadir", "setting": "[3]", "value": "9e+07", "unit": "L⁻¹"}, {"measurement": "Severe neutropenia duration", "setting": "[3]", "value": 5.4}, {"measurement": "Effects", "setting": "[4]; Rhesus, whole body irradiation, 30 mg/kg, whole wrapped cell: Enhanced survival, mitigation of thrombocytopenia, anemia", "value": "Enhanced survival,"}, {"measurement": "decrease in RBC, reticulocytes and WBC vs irradiated vehicle", "setting": "[4]; irradiated animals, 30 mg/kg 24 hours post-TBI (FIG. 18B-D)", "value": "less severe decrease"}, {"measurement": "platelet counts, nadir and recovery", "setting": "[4]; sham or irradiated animals, 30 mg/kg 24 hours post-TBI (FIG. 18A)", "value": "beneficial effects on platelet counts"}, {"measurement": "survival (animals surviving)", "setting": "[4]; single dose 30 mg/kg 24 hours post TBI 600 cGY, n=10/group (FIG. 17)", "value": "9/10"}, {"measurement": "Effects", "setting": "[5]", "value": "Protection of vascular size"}]}]}
